In patent publication US5955349A, “Compositions and methods for producing heterologous polypeptides in Pichia methanolica” (ZymoGenetics, Inc., priority 1996, dated 1999):

Test system: P. methanolica cells (strain CBS6515, UV-mutagenized)
Assay: Nystatin enrichment for auxotrophic mutants; titering of colony forming units versus control cells
Settings: 1 mg nystatin added to remainder (about 450 ml) of 500 ml culture in minimal broth with 5 g/L ammonium sulfate, one additional hour with shaking, versus untreated control cells
Experimental: Large-scale mutagenesis was then carried out using a 2-second UV exposure to provide about 20% killing. Cells were plated at approximately 10^4 cells/plate onto eight YEPD plates that were supplemented with 100 mg/L each of uracil, adenine, and leucine, which were added to supplement the growth of potential auxotrophs having the cognate deficiencies. Following UV exposure the plates were wrapped in foil and incubated overnight at 30° C. The following day the colonies on the plates (~10^5 total) were resuspended in water and washed once with water. An amount of cell suspension sufficient to give an OD600 of 0.1-0.2 was used to inoculate 500 ml of minimal broth made with yeast nitrogen base without amino acids or ammonia, supplemented with 1% glucose and 400 μg/L biotin. The culture was placed in a 2.8 L baffled Bell flask and shaken vigorously overnight at 30° C. The following day the cells had reached an OD600 of ~1.0-2.0. The cells were pelleted and resuspended in 500 ml of minimal broth supplemented with 5 g/L ammonium sulfate. The cell suspension was placed in a 2.8 L baffled Bell flask and shaken vigorously at 30° C. for 6 hours. […] The cultures were incubated with shaking for an additional hour. The control and nystatin-treated cells were then harvested by centrifugation and washed with water three times. […]

Compound: C[C@@H]1[C@H](O)[C@@H](C)/C=C/C=C/CC/C=C/C=C/C=C/C=C/C(O[C@H]2O[C@H](C)[C@@H](O)[C@H](N)[C@@H]2O)CC2O[C@](O)(CC(O)C(O)CCC(O)CC(O)CC(O)CC(=O)O[C@H]1C)CC(O)C2C(=O)O (stereo partly shown) [nystatin]
- decrease in the number of viable cells (colony forming units), factor: 10^4
